Test results published in US11919874B2, “Bisphenol derivatives and their use as androgen receptor activity modulators” (The University of British Columbia, priority 2016, dated 2024).

Experiments:
androgen receptor = target: T1, androgen receptor (Homo sapiens, UniProt P10275, T878A); assay: PSA (6.1 kb)-luciferase reporter assay in LNCaP cells induced with R1881; type: cell-based; settings: R1881 1 nM, 48 h, mean with standard error
T1 construct: endogenous in cells; host or cells: LNCaP
T1 sequence (P10275 1-920 T878A): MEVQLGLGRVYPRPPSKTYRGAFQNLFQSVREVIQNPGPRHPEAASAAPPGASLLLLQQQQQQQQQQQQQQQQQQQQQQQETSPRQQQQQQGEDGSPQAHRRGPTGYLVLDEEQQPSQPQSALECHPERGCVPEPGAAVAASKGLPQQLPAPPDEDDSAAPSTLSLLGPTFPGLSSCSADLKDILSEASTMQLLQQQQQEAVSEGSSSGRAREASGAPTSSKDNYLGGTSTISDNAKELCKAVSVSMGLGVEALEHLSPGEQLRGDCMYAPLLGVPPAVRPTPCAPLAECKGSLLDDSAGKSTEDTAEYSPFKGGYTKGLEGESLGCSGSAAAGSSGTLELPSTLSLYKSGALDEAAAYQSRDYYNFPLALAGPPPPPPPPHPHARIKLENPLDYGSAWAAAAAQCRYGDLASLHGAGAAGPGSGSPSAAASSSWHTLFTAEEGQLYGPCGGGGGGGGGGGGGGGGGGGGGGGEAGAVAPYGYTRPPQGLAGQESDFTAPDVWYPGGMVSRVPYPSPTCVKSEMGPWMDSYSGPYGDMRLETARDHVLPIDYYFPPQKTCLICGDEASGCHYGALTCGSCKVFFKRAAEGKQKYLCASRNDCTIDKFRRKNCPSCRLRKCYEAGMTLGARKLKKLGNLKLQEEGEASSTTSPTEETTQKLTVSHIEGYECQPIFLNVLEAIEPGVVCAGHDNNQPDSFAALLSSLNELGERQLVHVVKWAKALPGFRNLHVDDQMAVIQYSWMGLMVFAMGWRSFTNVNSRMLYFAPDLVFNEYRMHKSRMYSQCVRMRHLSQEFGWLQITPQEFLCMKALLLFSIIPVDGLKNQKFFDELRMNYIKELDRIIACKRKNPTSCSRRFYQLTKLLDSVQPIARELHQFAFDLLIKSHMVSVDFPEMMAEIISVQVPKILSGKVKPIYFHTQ
Protocol: LNCaP cells (3×10^4) were seeded into 24-well plates overnight. […] Luciferase activities were measured and normalized to protein concentration determined by the Bradford assay. IC50 calculations were done using OriginPro 8.1 Software (Northampton, MA, USA). Transfection experiments to determine IC50 values were performed in at least 4 independent experiments (“trials”) using triplicate wells.

LNCaP xenografts = assay: LNCaP xenograft model in castrated NOD-SCID mice, tumor volume; type: in vivo
Protocol: LNCaP Cell Preparation: LNCaP cells were passaged prior to seeding in T175flasks at a concentration of ˜2-3×10^7/mL. The cells were grown for 7 days until 90% confluent. Cell preparations were then prepared in RPMI with 5% FBS/Matrigel (50/50, v/v) yielding a final concentration of 1×10^8/mL.
Tumor Induction and Treatment: Six to eight week old NOD-SCID mice were received from BC Cancer Research Centre's Animal Resource Centre and acclimated for 28 days. Tumors were initiated with […]. Tumors were allowed to grow to an average size of approximately 100 mm^3. Mice were then castrated and the tumors allowed to adapt for a period of one week before first dose was administered. Tumor volume was measured as length×width×height in mm multiplied by 0.5236.
Compound Preparation and Treatment: Compound 1a was dissolved in 100% DMSO (ATCC Lot 61908420) to yield a stock solution of 157 mg/mL. Compound 1a was administered as an oral gavage once per day at dose levels of 10 and 30 mg/kg. Vehicle control animals were administered 1% CMC formulation as an oral gavage once daily. […]
Oral treatment was initiated one week after castration. […] Two days after the last dose, the tumours were measured and harvested. Body weight was assessed daily throughout the treatment period. Tumor volume was measured on day −7 (castration day), and again on days 1, 4, 8, 12, 16, 20, 24 and 26.

[1] = Body weight in LNCaP xenograft model; type: in vivo, mice; settings: daily oral 10 or 30 mg/kg, start vs day 26, vs CMC control
Protocol: Compound Preparation and Treatment: Compound 1a was dissolved in 100% DMSO (ATCC Lot 61908420) to yield a stock solution of 157 mg/mL. Compound 1a was administered as an oral gavage once per day at dose levels of 10 and 30 mg/kg. Vehicle control animals were administered 1% CMC formulation as an oral gavage once daily. CMC (n=17 tumours); 10 mg/kg (n=15 tumours); 30 mg/kg (n=14 tumours). CMC (n=9 animals); 10 mg/kg (n=9 animals); 30 mg/kg (n=9 animals).
Oral treatment was initiated one week after castration. The start of treatment was designated “Day 1” and animals were treated once daily for a total of 24 doses. Two days after the last dose, the tumours were measured and harvested. Body weight was assessed daily throughout the treatment period. Tumor volume was measured on day −7 (castration day), and again on days 1, 4, 8, 12, 16, 20, 24 and 26.

PSA mRNA = PSA mRNA in LNCaP xenografts by QPCR; type: in vivo, mice
Text: Quantitative Real-Time Polymerase Chain Reaction (QPCR) Method: LNCaP xenografts were homogenized using TRIzol® reagent (Invitrogen™), and total RNA was extracted using PureLink RNA Mini Kit (Life Technologies). Amplification Grade DNase I treatment (Sigma-Aldrich) was applied to the RNA before RT-PCR using High Capacity RNA-to-DNA kit (Life Technologies) to generate cDNA. cDNA and gene-specific primers were combined with Platinum® SYBR® Green qPCRSuperMix-UDG with ROX (Invitrogen™). Transcripts were measured by quantitative real-time PCR (QPCR) using ABI PRISM 7900 Sequence Detection System (ABI PRISM®, Applied Biosystems by Life Technologies) in triplicates for each biological sample. Gene expression levels were normalized to housekeeping gene RPL13A. Primers for PSA have been previously described (Andersen R. J., et al. Cancer Cell. 2010; Myung J. K., et al. J. Clin. Invest. 2013).
In FIG. 6, bars represent mean±SEM with n=5 representative tumors from each treatment group. One-way ANOVA post-hoc Tukey's multiple comparisons test was performed for statistical analysis. *p<0.05; **p<0.01; ***p<0.001.

SMILES | IC50 (androgen receptor) | also measured
CC(=O)OC[C@H](COc1ccc(C(C)(C)c2ccc(OC[C@@H](CCl)OC(C)=O)cc2)cc1)OC(C)=O [B, reference compound] | 10.7 ± 1.04 µM | 
CC(C)(c1ccc(OC[C@H](O)CO)cc1)c1ccc(OC[C@H](O)CCl)c(Cl)c1 [C, reference compound] | 2.47 ± 0.26 µM | 
CCS(=O)(=O)C[C@@H](O)COc1ccc(C(C)(C)c2cc(Cl)c(OC[C@H](O)CCl)c(Cl)c2)cc1 [Compound 14a, (S)-1-chloro-3-(2,6-dichloro-4-(2-(4-((S)-3-(ethylsulfonyl)-2-hydroxypropoxy)phenyl)propan-2-yl)phenoxy)propan-2-ol] | 0.95 ± 0.21 µM | 
CC(C)(c1ccc(OC[C@H](O)CNS(C)(=O)=O)cc1)c1cc(Cl)c(OC[C@H](O)CCl)c(Cl)c1 [Compound 13a, N-((R)-3-(4-(2-(3,5-dichloro-4-((S)-3-chloro-2-hydroxypropoxy)phenyl)propan-2-yl)phenoxy)-2-hydroxypropyl)methanesulfonamide] | 1 ± 0.16 µM | 

More lines, main results first:

IC50 (androgen receptor) | SMILES | also measured
3.12 ± 0.68 µM | CC(C)(c1ccc(OC[C@H](O)Cn2ccnc2)cc1)c1cc(Cl)c(OC[C@H](O)CCl)c(Cl)c1 [Compound 9a, (S)-1-chloro-3-(2,6-dichloro-4-(2-(4-((R)-2-hydroxy-3-(1H-imidazol-1-yl)propoxy)phenyl)propan-2-yl)phenoxy)propan-2-ol] | 
1.03 ± 0.39 µM | COC[C@@H](O)COc1ccc(C(C)(C)c2cc(Cl)c(OC[C@H](O)CCl)c(Cl)c2)cc1 [Compound 5a, (S)-1-chloro-3-(2,6-dichloro-4-(2-(4-((R)-2-hydroxy-3-methoxypropoxy)phenyl)propan-2-yl)phenoxy)propan-2-ol] | 
1.05 ± 0.15 µM | CC(C)(c1ccc(OC[C@H](O)CN2CCOCC2)cc1)c1cc(Cl)c(OC[C@H](O)CCl)c(Cl)c1 [Compound 11a, (S)-1-chloro-3-(2,6-dichloro-4-(2-(4-((R)-2-hydroxy-3-morpholinopropoxy)phenyl)propan-2-yl)phenoxy)propan-2-ol] | 
1.41 ± 0.27 µM | CC(C)(c1ccc(OC[C@H](O)CO)cc1)c1cc(Cl)c(OC[C@H](O)CCl)c(Cl)c1 [Compound 1a, (R)-3-(4-(2-(3,5-dichloro-4-((S)-3-chloro-2-hydroxypropoxy)phenyl)propan-2-yl)phenoxy)propane-1,2-diol] | tumor growth / tumor volume at the end of the treatment period (LNCaP xenografts; daily oral 10 mg/kg or 30 mg/kg, castrated NOD-SCID mice, day 26, vs CMC control): inhibition of tumor growth and significant reduction of tumor volume; difference in tumor volumes between the 10 mg/kg and 30 mg/kg doses (LNCaP xenografts; daily oral, 10 mg/kg vs 30 mg/kg): no statistical difference in the tumor volumes; start and finish body weights [1]: no significant differences between the start and finish body weights; mRNA expression of PSA in tumors (PSA mRNA; 30 mg/kg oral daily, compared to the 10 mg/kg dose and control treatment): significant reduction of PSA expression; mRNA expression of PSA in tumors (PSA mRNA; 10 and 30 mg/kg oral daily, QPCR normalized to RPL13A, n=5 tumors): dose-dependent inhibition of the mRNA expression of PSA
2.26 ± 0.24 µM | CC(C)(c1ccc(OC[C@H](O)CN)cc1)c1cc(Cl)c(OC[C@H](O)CCl)c(Cl)c1 [Compound 12a, (R)-1-amino-3-(4-(2-(3,5-dichloro-4-((S)-3-chloro-2-hydroxypropoxy)phenyl)propan-2-yl)phenoxy)propan-2-ol] | 
